Several values for one entry are separate records, joined by “and”; a condition that tells them apart may be missing. Equal values may be shown once. Records with an inconclusive call do not appear.
Tested on: Lewis lung carcinoma i.m., BDF1 mice, T/C %
Assay: NCI In Vivo Anticancer Drug Screen. Data for tumor model Lewis Lung Carcinoma (intramuscular) in B6D2F1 (BDF1) mice
Summary of the method: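 Compound given to mice with transplantable tumours; survival or tumour size compared against the vehicle control group, reported as T divided by C.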

[1] = endpoint: mean tumor weight (est.), dose: 0.25 mg/kg/injection, schedule: Q01DX011 (ip), vehicle: saline, higher = larger tumour
[2] = endpoint: mean tumor weight (est.), dose: 0.5 mg/kg/injection, schedule: Q01DX011 (ip), vehicle: saline, higher = larger tumour
[3] = endpoint: median survival time, dose: 0.25 mg/kg/injection, schedule: Q01DX011 (ip), vehicle: saline, higher = longer survival
[4] = endpoint: median survival time, dose: 0.5 mg/kg/injection, schedule: Q01DX011 (ip), vehicle: saline, higher = longer survival
[5] = endpoint: mean tumor weight (est.), dose: 100.0 mg/kg/injection, schedule: Q01DX011 (ip), vehicle: saline with Tween-80, higher = larger tumour
[6] = endpoint: mean tumor weight (est.), dose: 200.0 mg/kg/injection, schedule: Q01DX011 (ip), vehicle: saline with Tween-80, higher = larger tumour
[7] = endpoint: mean tumor weight (est.), dose: 25.0 mg/kg/injection, schedule: Q01DX011 (ip), vehicle: saline with Tween-80, higher = larger tumour
[8] = endpoint: mean tumor weight (est.), dose: 50.0 mg/kg/injection, schedule: Q01DX011 (ip), vehicle: saline with Tween-80, higher = larger tumour

O=NN(CCCl)C(=O)NCC1CCC(CNC(=O)N(CCCl)N=O)CC1 (configuration not stated)
T/C (endpoint: median survival time, dose: 65.0 mg/kg/injection, schedule: Q07DX003 (ip), vehicle: Klucel (hydroxypropylcellulose) (HPC), higher = longer survival): 116 % of control
T/C (endpoint: median survival time, dose: 108.0 mg/kg/injection, schedule: Q07DX003 (ip), vehicle: Klucel (hydroxypropylcellulose) (HPC), higher = longer survival): 106 % of control
T/C (endpoint: median survival time, dose: 180.0 mg/kg/injection, schedule: Q07DX003 (ip), vehicle: Klucel (hydroxypropylcellulose) (HPC), higher = longer survival): 114 % of control
T/C (endpoint: median survival time, dose: 300.0 mg/kg/injection, schedule: Q07DX003 (ip), vehicle: Klucel (hydroxypropylcellulose) (HPC), higher = longer survival): 106 % of control
T/C (endpoint: median survival time, dose: 500.0 mg/kg/injection, schedule: Q07DX003 (ip), vehicle: Klucel (hydroxypropylcellulose) (HPC), higher = longer survival): 114 % of control

Cc1ccc2c(ccc(C)[n+]2C)c1
T/C (endpoint: mean tumor weight (est.), dose: 37.5 mg/kg/injection, schedule: Q01DX011 (ip), vehicle: saline, higher = larger tumour): 86 % of control
T/C (endpoint: mean tumor weight (est.), dose: 75.0 mg/kg/injection, schedule: Q01DX011 (ip), vehicle: saline, higher = larger tumour): 86 % of control

O=C1NC(c2cccc3ccccc23)Nc2ccccc21 (configuration not stated)
T/C (endpoint: mean tumor weight, dose: 15.6 mg/kg/injection, schedule: Q01DX011 (ip), vehicle: saline with Tween-80, higher = larger tumour): 86 % of control
T/C (endpoint: mean tumor weight, dose: 31.2 mg/kg/injection, schedule: Q01DX011 (ip), vehicle: saline with Tween-80, higher = larger tumour): 80 % of control
T/C (endpoint: mean tumor weight, dose: 62.5 mg/kg/injection, schedule: Q01DX011 (ip), vehicle: saline with Tween-80, higher = larger tumour): 90 % of control
T/C (endpoint: mean tumor weight, dose: 125.0 mg/kg/injection, schedule: Q01DX011 (ip), vehicle: saline with Tween-80, higher = larger tumour): 67 % of control
T/C (endpoint: median survival time, dose: 15.6 mg/kg/injection, schedule: Q01DX011 (ip), vehicle: saline, higher = longer survival): 102 % of control
T/C (endpoint: median survival time, dose: 31.2 mg/kg/injection, schedule: Q01DX011 (ip), vehicle: saline, higher = longer survival): 119 % of control
T/C (endpoint: median survival time, dose: 62.5 mg/kg/injection, schedule: Q01DX011 (ip), vehicle: saline, higher = longer survival): 114 % of control
T/C (endpoint: median survival time, dose: 125.0 mg/kg/injection, schedule: Q01DX011 (ip), vehicle: saline, higher = longer survival): 114 % of control

O=P1(NCCCl)OCCCN1CCCl (configuration not stated)
T/C (endpoint: mean tumor weight, dose: 23.0 mg/kg/injection, schedule: Q01DX011 (ip), vehicle: water, higher = larger tumour): 101 % of control
T/C (endpoint: mean tumor weight, dose: 39.0 mg/kg/injection, schedule: Q01DX011 (ip), vehicle: water, higher = larger tumour): 66 % of control
T/C (endpoint: mean tumor weight, dose: 108.0 mg/kg/injection, schedule: Q01DX001 (ip), vehicle: water, higher = larger tumour): 72 % of control
T/C (endpoint: mean tumor weight, dose: 180.0 mg/kg/injection, schedule: Q01DX001 (ip), vehicle: water, higher = larger tumour): 14 % of control
T/C (endpoint: median survival time, dose: 23.0 mg/kg/injection, schedule: Q01DX011 (ip), vehicle: water, higher = longer survival): 118 % of control and 122 % of control
T/C (endpoint: median survival time, dose: 39.0 mg/kg/injection, schedule: Q01DX011 (ip), vehicle: water, higher = longer survival): 94 % of control and 124 % of control
T/C (endpoint: median survival time, dose: 65.0 mg/kg/injection, schedule: Q07DX Z (ip), vehicle: water, higher = longer survival): 110 % of control
T/C (endpoint: median survival time, dose: 108.0 mg/kg/injection, schedule: Q01DX001 (ip), vehicle: water, higher = longer survival): 88 % of control and 98 % of control
T/C (endpoint: median survival time, dose: 108.0 mg/kg/injection, schedule: Q01DX011 (ip), vehicle: water, higher = longer survival): 104 % of control
T/C (endpoint: median survival time, dose: 108.0 mg/kg/injection, schedule: Q04DX Z (ip), vehicle: water, higher = longer survival): 98 % of control
T/C (endpoint: median survival time, dose: 108.0 mg/kg/injection, schedule: Q07DX Z (ip), vehicle: water, higher = longer survival): 112 % of control
T/C (endpoint: median survival time, dose: 180.0 mg/kg/injection, schedule: Q01DX001 (ip), vehicle: water, higher = longer survival): 114 % of control
T/C (endpoint: median survival time, dose: 180.0 mg/kg/injection, schedule: Q07DX Z (ip), vehicle: water, higher = longer survival): 104 % of control
T/C (endpoint: median survival time, dose: 300.0 mg/kg/injection, schedule: Q01DX001 (ip), vehicle: water, higher = longer survival): 164 % of control and 178 % of control
T/C (endpoint: median survival time, dose: 300.0 mg/kg/injection, schedule: Q04DX Z (ip), vehicle: water, higher = longer survival): 120 % of control
T/C (endpoint: median survival time, dose: 300.0 mg/kg/injection, schedule: Q07DX Z (ip), vehicle: water, higher = longer survival): 158 % of control

COc1c2c([n+](C)c3c(OC)cccc13)OC(C(C)C)C2 (configuration not stated)
T/C [1]: 85 % of control
T/C [2]: 82 % of control
T/C [3]: 90 % of control
T/C [4]: 101 % of control

C=CCN1/C(=C/C=C\c2sc3ccccc3[n+]2CC=C)Sc2ccccc21
T/C (endpoint: mean tumor weight (est.), dose: 0.07 mg/kg/injection, schedule: Q01DX011 (ip), vehicle: saline, higher = larger tumour): 89 % of control
T/C (endpoint: mean tumor weight (est.), dose: 0.13 mg/kg/injection, schedule: Q01DX011 (ip), vehicle: saline, higher = larger tumour): 87 % of control
T/C [1]: 117 % of control
T/C [2]: 93 % of control
T/C (endpoint: mean tumor weight (est.), dose: 1.0 mg/kg/injection, schedule: Q01DX011 (ip), vehicle: saline, higher = larger tumour): 113 % of control
T/C (endpoint: median survival time, dose: 0.06 mg/kg/injection, schedule: Q01DX011 (ip), vehicle: saline, higher = longer survival): 93 % of control
T/C (endpoint: median survival time, dose: 0.13 mg/kg/injection, schedule: Q01DX011 (ip), vehicle: saline, higher = longer survival): 86 % of control
T/C [3]: 87 % of control
T/C [4]: 89 % of control

O=[N+]([O-])c1ccc(N/N=C/CC(O)CO)c([N+](=O)[O-])c1 (configuration not stated)
T/C [5]: 57 % of control
T/C [6]: 52 % of control
T/C (endpoint: median survival time, dose: 100.0 mg/kg/injection, schedule: Q01DX011 (ip), vehicle: saline with Tween-80, higher = longer survival): 92 % of control

Cc1c(O)ccc(=O)n1O
T/C (endpoint: mean tumor weight (est.), dose: 27.5 mg/kg/injection, schedule: Q01DX011 (ip), vehicle: saline, higher = larger tumour): 99 % of control
T/C (endpoint: mean tumor weight (est.), dose: 55.0 mg/kg/injection, schedule: Q01DX011 (ip), vehicle: saline, higher = larger tumour): 121 % of control
T/C (endpoint: mean tumor weight (est.), dose: 110.0 mg/kg/injection, schedule: Q01DX011 (ip), vehicle: saline, higher = larger tumour): 84 % of control
T/C (endpoint: mean tumor weight (est.), dose: 220.0 mg/kg/injection, schedule: Q01DX011 (ip), vehicle: saline, higher = larger tumour): 79 % of control
T/C (endpoint: median survival time, dose: 27.5 mg/kg/injection, schedule: Q01DX011 (ip), vehicle: saline, higher = longer survival): 103 % of control
T/C (endpoint: median survival time, dose: 55.0 mg/kg/injection, schedule: Q01DX011 (ip), vehicle: saline, higher = longer survival): 96 % of control
T/C (endpoint: median survival time, dose: 110.0 mg/kg/injection, schedule: Q01DX011 (ip), vehicle: saline, higher = longer survival): 98 % of control
T/C (endpoint: median survival time, dose: 220.0 mg/kg/injection, schedule: Q01DX011 (ip), vehicle: saline, higher = longer survival): 121 % of control

CNNCc1ccc(C(=O)NC(C)C)cc1
T/C (endpoint: mean tumor weight (est.), dose: 23.0 mg/kg/injection, schedule: Q01DX009 (ip), vehicle: saline, higher = larger tumour): 86 % of control
T/C (endpoint: mean tumor weight (est.), dose: 39.0 mg/kg/injection, schedule: Q01DX009 (ip), vehicle: saline, higher = larger tumour): 95 % of control
T/C (endpoint: mean tumor weight (est.), dose: 65.0 mg/kg/injection, schedule: Q01DX009 (ip), vehicle: saline, higher = larger tumour): 64 % of control
T/C (endpoint: mean tumor weight (est.), dose: 108.0 mg/kg/injection, schedule: Q01DX009 (ip), vehicle: saline, higher = larger tumour): 79 % of control
T/C (endpoint: mean tumor weight (est.), dose: 180.0 mg/kg/injection, schedule: Q01DX009 (ip), vehicle: saline, higher = larger tumour): 95 % of control
T/C (endpoint: mean tumor weight (est.), dose: 300.0 mg/kg/injection, schedule: Q01DX009 (ip), vehicle: saline, higher = larger tumour): 37 % of control
T/C (endpoint: mean tumor weight, dose: 23.0 mg/kg/injection, schedule: Q01DX011 (ip), vehicle: saline, higher = larger tumour): 100 % of control
T/C (endpoint: mean tumor weight, dose: 37.5 mg/kg/injection, schedule: Q01DX011 (ip), vehicle: saline, higher = larger tumour): 78 % of control
T/C (endpoint: mean tumor weight, dose: 39.0 mg/kg/injection, schedule: Q01DX011 (ip), vehicle: saline, higher = larger tumour): 72 % of control
T/C (endpoint: mean tumor weight, dose: 65.0 mg/kg/injection, schedule: Q01DX011 (ip), vehicle: saline, higher = larger tumour): 37 % of control
T/C (endpoint: mean tumor weight, dose: 75.0 mg/kg/injection, schedule: Q01DX011 (ip), vehicle: saline, higher = larger tumour): 62 % of control
T/C (endpoint: mean tumor weight, dose: 108.0 mg/kg/injection, schedule: Q01DX011 (ip), vehicle: saline, higher = larger tumour): 62 % of control
T/C (endpoint: mean tumor weight, dose: 150.0 mg/kg/injection, schedule: Q01DX011 (ip), vehicle: saline, higher = larger tumour): 35 % of control
T/C (endpoint: mean tumor weight, dose: 180.0 mg/kg/injection, schedule: Q01DX011 (ip), vehicle: saline, higher = larger tumour): 41 % of control
T/C (endpoint: median survival time, dose: 37.5 mg/kg/injection, schedule: Q01DX011 (ip), vehicle: saline, higher = longer survival): 97 % of control
T/C (endpoint: median survival time, dose: 75.0 mg/kg/injection, schedule: Q01DX011 (ip), vehicle: saline, higher = longer survival): 91 % of control
T/C (endpoint: median survival time, dose: 150.0 mg/kg/injection, schedule: Q01DX011 (ip), vehicle: saline, higher = longer survival): 95 % of control

CCCCC/C(C)=N\Nc1ccccn1
T/C (endpoint: mean tumor weight (est.), dose: 12.5 mg/kg/injection, schedule: Q01DX011 (ip), vehicle: saline with Tween-80, higher = larger tumour): 91 % of control
T/C [7]: 88 % of control
T/C [8]: 80 % of control
T/C (endpoint: median survival time, dose: 25.0 mg/kg/injection, schedule: Q01DX011 (ip), vehicle: saline with Tween-80, higher = longer survival): 98 % of control
T/C (endpoint: median survival time, dose: 50.0 mg/kg/injection, schedule: Q01DX011 (ip), vehicle: saline with Tween-80, higher = longer survival): 98 % of control

OCN(CO)c1nc(N(CO)CO)nc(N(CO)CO)n1
T/C [7]: 112 % of control
T/C [8]: 85 % of control
T/C [5]: 116 % of control
T/C [6]: 120 % of control
T/C (endpoint: mean tumor weight (est.), dose: 400.0 mg/kg/injection, schedule: Q01DX011 (ip), vehicle: saline with Tween-80, higher = larger tumour): 73 % of control

— PubChem BioAssay AID272 (DTP/NCI, 2004)
